Our source for the Activity, IC50 and MIC values is ChEMBL document CHEMBL1142397, “Antineoplastic agents. 536. New sources of naturally occurring cancer cell growth inhibitors from marine organisms, terrestrial plants, and microorganisms(1a,)” (J Nat Prod, 2008).

Starred links: 1 amine or outer side, 2 acyl side, 3 side chain; linkers in the order of their positions; H or OH if unused. Non-standard residues stand in square brackets, D forms with d. Residues, ends and D or L forms follow the SMILES beside them. X1 = CCC(N[*:1])C(C)C(=O)O[C@H](C(=O)[*:2])[C@@H](C)CC; X2 = C[C@H](N[*:1])C(=O)C(C)(C)C(=O)[*:2]; NMeY = CN[C@@H](Cc1ccc(O)cc1)C(=O)O; NMeI = CC[C@H](C)[C@H](NC)C(=O)O; NMeV = CN[C@H](C(=O)O)C(C)C

Experiment [1] relates to SK-MEL-5. Description: Cytotoxicity against human SK-MEL-5 cells assessed as concentration required for 50% inhibition. Format: functional.
For experiment [2], the system named is A498. Nature of the experiment: Cytotoxicity against human A498 cells assessed as concentration required for 50% inhibition. Format: functional.
Experiment [3] deals with NCI-H460. Nature of the experiment: Cytotoxicity against human NCIH460 cells assessed as concentration required for 50% inhibition. Format: functional.
Experiment [4] has as its system KM-20L2. Nature of the experiment: Cytotoxicity against human KM20L2 cells assessed as concentration required for 50% inhibition. The format is functional.
Experiment [5] has as its system SF-295. Description: Cytotoxicity against human SF295 cells assessed as concentration required for 50% inhibition. Format: functional.
Experiment [6] has as its system OVCAR-3. Nature of the experiment: Cytotoxicity against human OVCAR-3 cells assessed as concentration required for 50% inhibition. The format is functional.
Experiment [7] deals with Vero. Description: Cytotoxicity against african green monkey Vero cells. The format is functional, cell-based. The settings on record: Chlorocebus sabaeus.
For experiment [8], the system named is MCF7. Nature of the experiment: Cytotoxicity against human MCF7 cells assessed as concentration required for 50% inhibition. The format is functional.
The test system of experiment [9] is P388. Nature of the experiment: Cytotoxicity against mouse P388 cells assessed as concentration required for 50% inhibition. Format: functional.
Experiment [10] concerns Mycobacterium tuberculosis. Nature of the experiment: Antibacterial activity against Mycobacterium tuberculosis. The format is functional.
Experiment [11] concerns BXPC-3. Nature of the experiment: Cytotoxicity against human BXPC3 cells assessed as concentration required for 50% inhibition. The format is functional.
Experiment [12] deals with DU-145. Nature of the experiment: Cytotoxicity against human DU145 cells assessed as concentration required for 50% inhibition. The format is functional.
For experiment [13], the system named is SF-268. Nature of the experiment: Cytotoxicity against human SF268 cells assessed as concentration required for 50% inhibition. Format: functional.

Regarding `CCC1NC(=O)[C@H](C)NC(=O)C(C)(C)C(=O)[C@H](C)NC(=O)[C@H](Cc2ccc(OC)cc2)N(C)C(=O)[C@H](C(C)C)N(C)C(=O)CNC(=O)[C@H]([C@@H](C)CC)N(C)C(=O)CNC(=O)[C@H]([C@@H](C)CC)OC(=O)C1C` (stereo partly specified) [MAJUSCULAMIDE C] (cyclo(A[X1]G[NMeI]G[NMeV][NMeY](Me)[X2])), the Activity in experiment [1] came out at 0.0068 µg/mL; in [2], 0.058 µg/mL; in experiment [3] it was 0.0032 µg/mL; in experiment [4], 0.0013 µg/mL; in experiment [5] it was 0.13 µg/mL; in experiment [6], 0.51 µg/mL.

`Cl.O[C@]12C=C(c3nccc4c3[nH]c3ccccc34)[C@@H]3CCN(CCCC/C=C\CC1)C[C@@]31C[C@@H]3/C=C\CCCCN3[C@H]12` [MANZAMINE A HCL] returned an IC50 in experiment [7] of 1.7 µg/mL. Besides, the Activity in [3] worked out at 0.36 µg/mL; in [8] it was 0.41 µg/mL; in experiment [4] it was 0.37 µg/mL; in [9] it was 0.0067 µg/mL; in [10], 99%; in experiment [11], 0.35 µg/mL. The Activity in experiment [12] is 0.6 µg/mL; in [13] it was 0.42 µg/mL. For the same compound, the MIC in experiment [10] (Mycobacterium tuberculosis) worked out at 6.25 µg/mL.

As usually defined, the IC50 is the concentration that gives 50% inhibition. Broadly, the MIC is the least concentration at which growth counts as inhibited.
